Laboratory results as given in ChEMBL document CHEMBL1130514, “Design and synthesis of conformationally constrained arginal thrombin inhibitors” (Bioorg Med Chem Lett, 1997).
Where a SMILES comes first, the peptide text is derived from it. [ ]: non-standard residue; d: D form. The star is where a group is joined. dNMePhg = CN[C@@H](C(=O)O)c1ccccc1; PhAc = O=C(Cc1ccccc1)*

Experiments:
Prothrombin = Prothrombin (Homo sapiens, UniProt P00734); assay: In vitro ability to inhibit the activity of human alpha Thrombin
Serine protease 1 = target: T1, Serine protease 1 (Bos taurus, UniProt P00760); assay: In vitro ability to inhibit the activity of Trypsin
T1 sequence (P00760 whole entry): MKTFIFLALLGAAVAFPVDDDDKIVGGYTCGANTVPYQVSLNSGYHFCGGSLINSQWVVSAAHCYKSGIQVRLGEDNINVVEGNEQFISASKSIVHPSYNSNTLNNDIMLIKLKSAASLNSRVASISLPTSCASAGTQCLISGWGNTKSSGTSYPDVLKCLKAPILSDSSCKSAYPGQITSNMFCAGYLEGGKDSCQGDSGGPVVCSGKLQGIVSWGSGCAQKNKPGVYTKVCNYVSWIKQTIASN

Plasminogen = Plasminogen (Homo sapiens, UniProt P00747); assay: In vitro ability to inhibit the activity of Plasmin
Chain of Plasminogen (P00747 97-580 limits assumed): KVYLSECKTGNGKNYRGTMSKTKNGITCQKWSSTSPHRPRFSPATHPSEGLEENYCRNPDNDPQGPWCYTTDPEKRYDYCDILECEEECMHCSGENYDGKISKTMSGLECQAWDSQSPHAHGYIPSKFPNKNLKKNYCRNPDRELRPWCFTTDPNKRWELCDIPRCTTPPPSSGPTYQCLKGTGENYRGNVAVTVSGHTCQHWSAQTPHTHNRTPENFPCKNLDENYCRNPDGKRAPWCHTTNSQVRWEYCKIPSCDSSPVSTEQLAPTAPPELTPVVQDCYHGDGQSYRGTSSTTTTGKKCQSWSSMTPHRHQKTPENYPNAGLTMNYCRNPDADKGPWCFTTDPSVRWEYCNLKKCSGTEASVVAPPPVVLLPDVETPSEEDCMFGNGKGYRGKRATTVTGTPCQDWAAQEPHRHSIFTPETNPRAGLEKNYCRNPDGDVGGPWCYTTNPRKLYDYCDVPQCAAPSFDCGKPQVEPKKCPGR
Chain of Plasminogen (P00747 581-810 limits assumed): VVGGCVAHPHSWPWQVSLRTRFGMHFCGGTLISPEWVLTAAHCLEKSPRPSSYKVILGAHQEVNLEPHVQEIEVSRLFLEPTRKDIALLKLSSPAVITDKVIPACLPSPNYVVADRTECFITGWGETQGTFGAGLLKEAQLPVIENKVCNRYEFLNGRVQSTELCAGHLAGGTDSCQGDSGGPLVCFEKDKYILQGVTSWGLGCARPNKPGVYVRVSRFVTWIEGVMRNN

| IC50 (Prothrombin) [µM] | IC50 (Serine protease 1) [µM] | IC50 (Plasminogen) [µM] | SMILES |
| --- | --- | --- | --- |
| 0.11 | – | 10 | N=C(N)N1CCC[C@H](NC(=O)[C@@H]2CC[C@@H]3CCC[C@H](NS(=O)(=O)Cc4ccccc4)C(=O)N32)C1O (stereo partly specified) |
| – | 5 | 800 | CC1CNc2c(cccc2S(=O)(=O)N[C@@H](CCCNC(=N)N)C(=O)N2CCC(C)C[C@@H]2C(=O)O)C1 (single isomer, unassigned) [ARGATROBAN] |
| 1.6 | 7.2 | 41 | N=C(N)NCCC[C@@H](C=O)NC(=O)[C@@H]1CCCN1C(=O)Cc1ccccc1 (PhAc-Pro-Arg-aldehyde) |
| – | 0.02 | 0.5 | CN[C@H](Cc1ccccc1)C(=O)N1CCC[C@H]1C(=O)N[C@H](C=O)CCCN=C(N)N |
| 0.11 | – | 10 | N=C(N)N1CCC[C@H](NC(=O)[C@@H]2CC[C@@H]3CCC[C@H](NS(=O)(=O)c4cccc5ccccc45)C(=O)N32)C1O (stereo partly specified) |
| 4.3 | 24 | 74 | CC(=O)N[C@H]1CCC[C@H]2CC[C@@H](C(=O)N[C@H]3CCCN(C(=N)N)C3O)N2C1=O (stereo partly specified) |

Further lines, the compound ahead of its results:

| SMILES | IC50 (Prothrombin) [µM] | IC50 (Serine protease 1) [µM] | IC50 (Plasminogen) [µM] |
| --- | --- | --- | --- |
| CN[C@@H](C(=O)N1CCC[C@H]1C(=O)N[C@H](C=O)CCCNC(=N)N)c1ccccc1 (H-[dNMePhg]-Pro-Arg-aldehyde) | 0.026 | – | – |
| CC1CNc2c(cccc2S(=O)(=O)N[C@H]2CCC[C@H]3CC[C@@H](C(=O)N[C@H]4CCCN(C(=N)N)C4O)N3C2=O)C1 (stereo partly specified) | 0.018 | 0.1 | 1.04 |
| CC(=O)N[C@@]1(Cc2ccccc2)CC[C@H]2CC[C@@H](C(=O)N[C@H]3CCCN(C(=N)N)C3O)N2C1=O (stereo partly specified) | 3.9 | – | – |
| N=C(N)N1CCC[C@H](NC(=O)[C@@H]2CC[C@@H]3CCC(Cc4ccccc4)C(=O)N32)C1O (stereo partly specified) | 4.6 | – | – |
| N=C(N)N1CCC[C@H](NC(=O)[C@@H]2CC[C@@H]3CCCC(Cc4ccccc4)C(=O)N32)C1O (stereo partly specified) | 1.4 | – | – |
